Measured values from patent US20070196886A1 (priority 2004, published 2007).
Like-named read-outs stand apart in the source and are kept apart here.

System: Strain DH5α transformed with pRL663 or a pRL663 derivative

## Microcin J25 [MccJ25]
18 of 22 MccJ25-resistant mutants from random mutagenesis
  increase in MBC: ≥ 50 fold
All 22 MccJ25-resistant mutants from random mutagenesis
  increase in MBC: ≥ 5 fold
No substitution (wild-type β′), 2 h at 37° C.
  MBC: 0 µg/mL
rpoB 543 Ala→Leu, 549 Asp→Tyr, multiple-substitution mutant
  MBC: 50 µg/mL
rpoB 543 Ala→Pro, 546 Glu→Gly, multiple-substitution mutant
  MBC: 50 µg/mL
rpoB 544 Gly→Asp, saturation mutagenesis
  MBC: 50 µg/mL
rpoB 545 Phe→Leu, 546 Glu→Asp, multiple-substitution mutant
  MBC: 50 µg/mL
rpoB 545 Phe→Ser, saturation mutagenesis
  MBC: 50 µg/mL
rpoB 548 Arg→Gln, saturation mutagenesis
  MBC: 50 µg/mL
rpoB 549 Asp→His, saturation mutagenesis
  MBC: 50 µg/mL
rpoC 428 Thr→Asn, saturation mutagenesis
  MBC: 500 µg/mL
rpoC 428 Thr→Ile, saturation mutagenesis
  MBC: 500 µg/mL
rpoC 429 Leu→Gln, saturation mutagenesis
  MBC: 500 µg/mL
rpoC 430 His→Tyr, saturation mutagenesis
  MBC: 500 µg/mL
rpoC 493 Pro→Thr, 498 Pro→Thr, multiple-substitution mutant
  MBC: 100 µg/mL
rpoC 498 Pro→Gln, saturation mutagenesis
  MBC: 1000 µg/mL
rpoC 498 Pro→Leu, saturation mutagenesis
  MBC: 1000 µg/mL
rpoC 503 Ser→Pro, saturation mutagenesis
  MBC: 500 µg/mL
rpoC 503 Ser→Tyr, saturation mutagenesis
  MBC: 500 µg/mL
rpoC 504 Gln→Arg, saturation mutagenesis
  MBC: 500 µg/mL
rpoC 504 Gln→Glu, saturation mutagenesis
  MBC: 500 µg/mL
rpoC 508 Leu→Val, saturation mutagenesis
  MBC: 50 µg/mL
rpoC 680 Asn→Lys, saturation mutagenesis
  MBC: 500 µg/mL
rpoC 684 Asp→Ala, saturation mutagenesis
  MBC: 1000 µg/mL
rpoC 684 Asp→Glu, saturation mutagenesis
  MBC: 500 µg/mL
rpoC 684 Asp→Tyr, saturation mutagenesis
  MBC: 500 µg/mL
rpoC 684 Asp→Val, saturation mutagenesis
  MBC: 500 µg/mL
rpoC 732 Gly→Asp, saturation mutagenesis
  MBC: 100 µg/mL
rpoC 732 Gly→Asp, 733 Ser→Ala, multiple-substitution mutant
  MBC: 100 µg/mL
rpoC 732 Gly→Asp, Gly→Thr, multiple-substitution mutant
  MBC: 500 µg/mL
rpoC 733 Ser→Phe, saturation mutagenesis
  MBC: 100 µg/mL
rpoC 733 Ser→Tyr, saturation mutagenesis
  MBC: 100 µg/mL
rpoC 733 Ser→Val, saturation mutagenesis
  MBC: 500 µg/mL
rpoC 733 Ser→Val, 734 Ala→Gly, multiple-substitution mutant
  MBC: 100 µg/mL
rpoC 735 Ala→Δ, saturation mutagenesis
  MBC: 1000 µg/mL
rpoC 736 Gln→Pro, saturation mutagenesis
  MBC: 500 µg/mL
rpoC 738 Arg→Leu, saturation mutagenesis
  MBC: 50 µg/mL
rpoC 744 Arg→His, saturation mutagenesis
  MBC: 50 µg/mL
rpoC 744 Arg→Pro, saturation mutagenesis
  MBC: 50 µg/mL
rpoC 748 Ala→Pro, saturation mutagenesis
  MBC: 100 µg/mL
rpoC 775 Ser→Cys, saturation mutagenesis
  MBC: 500 µg/mL
rpoC 776 Thr→Ile, saturation mutagenesis
  MBC: 500 µg/mL
rpoC 777 His→Pro, saturation mutagenesis
  MBC: 500 µg/mL
rpoC 777 His→Ser, 778 Gly→Ala, multiple-substitution mutant
  MBC: 500 µg/mL
rpoC 777 His→Tyr, saturation mutagenesis
  MBC: 1000 µg/mL
rpoC 779 Ala→Gly, saturation mutagenesis
  MBC: 500 µg/mL
rpoC 779 Ala→Pro, saturation mutagenesis
  MBC: 500 µg/mL
rpoC 779 Ala→Thr, saturation mutagenesis
  MBC: 1000 µg/mL
rpoC 780 Arg→Cys, saturation mutagenesis
  MBC: 1000 µg/mL
rpoC 782 Gly→Ala, saturation mutagenesis
  MBC: 1000 µg/mL
rpoC 783 Leu→Pro, saturation mutagenesis
  MBC: 100 µg/mL
rpoC 784 Ala→Glu, saturation mutagenesis
  MBC: 500 µg/mL
rpoC 785 Asp→Gly, saturation mutagenesis
  MBC: 500 µg/mL
rpoC 786 Thr→Ala, saturation mutagenesis
  MBC: 500 µg/mL
rpoC 786 Thr→Ile, saturation mutagenesis
  MBC: 500 µg/mL
rpoC 788 Leu→Met, saturation mutagenesis
  MBC: 1000 µg/mL
rpoC 789 Lys→Arg, saturation mutagenesis
  MBC: 500 µg/mL
rpoC 789 Lys→Asn, saturation mutagenesis
  MBC: 1000 µg/mL
rpoC 789 Lys→Gln, saturation mutagenesis
  MBC: 1000 µg/mL
rpoC 790 Thr→Ala, saturation mutagenesis
  MBC: 1000 µg/mL
rpoC 790 Thr→Asn, saturation mutagenesis
  MBC: 500 µg/mL
rpoC 790 Thr→Ile, saturation mutagenesis
  MBC: 1000 µg/mL
rpoC 790 Thr→Ser, saturation mutagenesis
  MBC: 500 µg/mL
rpoC 922 Cys→Tyr, saturation mutagenesis
  MBC: 500 µg/mL
rpoC 926 Pro→Ser, saturation mutagenesis
  MBC: 500 µg/mL
rpoC 927 Gly→Cys, saturation mutagenesis
  MBC: 1000 µg/mL
rpoC 927 Gly→Ser, saturation mutagenesis
  MBC: 1000 µg/mL
rpoC 930 Leu→Met, saturation mutagenesis
  MBC: 1000 µg/mL
rpoC 931 Thr→Ala, saturation mutagenesis
  MBC: 1000 µg/mL
rpoC 931 Thr→Ile, saturation mutagenesis
  MBC: 1000 µg/mL
rpoC 932 Met→Ile, saturation mutagenesis
  MBC: 1000 µg/mL
rpoC 933 Arg→Cys, saturation mutagenesis
  MBC: 1000 µg/mL
rpoC 1136 Gly→Ala, saturation mutagenesis
  MBC: 500 µg/mL
rpoC 1136 Gly→Cys, saturation mutagenesis
  MBC: 1000 µg/mL
rpoC 1137 Gly→Ala, saturation mutagenesis
  MBC: 500 µg/mL
rpoC 1137 Gly→Arg, saturation mutagenesis
  MBC: 1000 µg/mL
rpoC 1240 Val→Glu, saturation mutagenesis
  MBC: 500 µg/mL
rpoC 1241 Tyr→Cys, saturation mutagenesis
  MBC: 100 µg/mL
rpoC 1241 Tyr→His, saturation mutagenesis
  MBC: 100 µg/mL
rpoC 1241 Tyr→Ser, saturation mutagenesis
  MBC: 100 µg/mL
rpoC 1244 Gln→Glu, saturation mutagenesis
  MBC: 100 µg/mL
rpoC 1244 Gln→Leu, saturation mutagenesis
  MBC: 500 µg/mL
rpoC 1244 Gln→Pro, saturation mutagenesis
  MBC: 100 µg/mL
rpoC 1247 Lys→Gln, saturation mutagenesis
  MBC: 100 µg/mL
rpoC 1247 Lys→Glu, saturation mutagenesis
  MBC: 100 µg/mL
rpoC 1248 Ile→Ser, saturation mutagenesis
  MBC: 100 µg/mL
β′ 424 Asn→Ser, random mutagenesis, single mutant constructed using site-directed mutagenesis
  MBC: 100 µg/mL
β′ 428 Thr→Ile, random mutagenesis
  MBC: 500 µg/mL
β′ 430 His→Leu, random mutagenesis
  MBC: 500 µg/mL
β′ 464 Asp→Gly, random mutagenesis
  MBC: 0 µg/mL
β′ 469 His→Arg, random mutagenesis
  MBC: 0 µg/mL
β′ 504 Gln→Arg, random mutagenesis
  MBC: 500 µg/mL
β′ 733 Ser→Phe, random mutagenesis
  MBC: 500 µg/mL
β′ 738 Arg→Leu, random mutagenesis
  MBC: 0 µg/mL
β′ 776 Thr→Ile, random mutagenesis
  MBC: 500 µg/mL
β′ 779 Ala→Thr, random mutagenesis
  MBC: 1000 µg/mL
β′ 780 Arg→Cys, random mutagenesis
  MBC: 1000 µg/mL
β′ 782 Gly→Ala, random mutagenesis
  MBC: 1000 µg/mL
β′ 785 Asp→Gly, random mutagenesis
  MBC: 500 µg/mL
β′ 786 Thr→Ile, random mutagenesis
  MBC: 500 µg/mL
β′ 789 Lys→Arg, random mutagenesis
  MBC: 500 µg/mL
β′ 789 Lys→Gln, random mutagenesis
  MBC: 1000 µg/mL
β′ 869 Cys→Arg, random mutagenesis
  MBC: 1000 µg/mL
β′ 933 Arg→Cys, random mutagenesis
  MBC: 1000 µg/mL
β′ 1244 Gln→Leu, random mutagenesis
  MBC: 500 µg/mL
